According to patent US9951055B2, “Thiazole-based inhibitors of scavenger receptor BI” (THE BROAD INSTITUTE, INC., priority 2012, dated 2018):

Legend:
[1] = biological target: T1, murine SR-BI (Mus musculus, UniProt Q61009); experiment: DiI-HDL uptake assay with extended washout; type: cell-based; conditions: after a 4-hour washout period
T1 construct: expressed in transfected cells; host or cells: ldlA[mSR-BI]; (CHO ldlA7 derivative lacking the LDL receptor)
T1 sequence (Q61009 1-509): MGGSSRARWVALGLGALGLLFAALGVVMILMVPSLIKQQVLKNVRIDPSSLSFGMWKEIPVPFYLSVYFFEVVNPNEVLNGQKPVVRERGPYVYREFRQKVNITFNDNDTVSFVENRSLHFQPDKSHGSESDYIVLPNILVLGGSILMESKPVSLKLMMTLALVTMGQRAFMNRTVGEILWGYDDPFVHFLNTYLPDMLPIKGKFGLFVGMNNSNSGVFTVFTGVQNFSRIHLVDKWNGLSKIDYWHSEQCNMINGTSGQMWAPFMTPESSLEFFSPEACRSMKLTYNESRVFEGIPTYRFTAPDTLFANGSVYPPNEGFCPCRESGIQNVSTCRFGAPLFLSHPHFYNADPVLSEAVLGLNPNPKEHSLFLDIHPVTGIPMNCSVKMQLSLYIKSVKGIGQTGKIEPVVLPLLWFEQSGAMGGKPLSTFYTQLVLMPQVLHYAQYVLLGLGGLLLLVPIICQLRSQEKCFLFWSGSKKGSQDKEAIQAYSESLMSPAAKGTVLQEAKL
Protocol: DiI-HDL Uptake Assay with Extended Washout (SA 5: AID No. 602154)
This is another modification of the primary assay where cells are pretreated with compound but no compound is present during a 4-hour washout period or the subsequent 3-hour DiI-HDL treatment period. […] Cells were treated with compound for 3 hours, then were washed four times with PBS, once with lipoprotein-free media (Ham's F12/0.5% fatty acid-free Bovine Serum Albumin [BSA]/25 mM HEPES pH 7.4), and then returned to the incubator with lipoprotein-free media for 4 hours. Media were then removed and cells were washed with PBS before fresh lipoprotein-free media (Ham's F12/0.5% fatty acid-free Bovine Serum Albumin [BSA]/25 mM HEPES pH 7.4) was added with […] DiI-HDL. Cells took up the DiI via SR-BI over 3 hours in the absence of compound. After significant uptake of the DiI, the cells became fluorescent. The level of fluorescence correlates with the amount of DiI uptake and can be measured with a standard plate reader. The uptake of lipid (represented by DiI) was inhibited by the compound BLT-1 or with an excess of HDL untreated with DiI.

[2] = system: endocytosis of transferrin; experiment: Transferrin endocytosis assay; type: cell-based
Excerpt: Transferrin Endocytosis Assay (SA 3: AID No. 602134) This assay measures the endocytosis of an independent ligand, transferrin, which is not taken up via SR-BI but by clathrin-mediated endocytosis. This assay provides a measure of the selectivity of the inhibitors. Alexa-594-labeled transferrin is taken into the cell via endocytosis and localization of labeled transferrin was quantitated in the various intracellular compartments. […] Inhibitors of interest should act selectively at SR-BI and should have no activity in this assay. Cells were pre-treated with compound for 3 hours and then treated with the Alexa-594 transferrin reagent for 30 minutes (Catalog No. T-13343; Invitrogen) in serum-free media. Plates of cells were then placed onto ice, washed with ice cold PBS, and then fixed with 4% paraformaldehyde. In addition, the nuclei were stained with 300 nM 4′,6-diamidino-2-phenylindole (DAPI) (Catalog No. 21490; Invitrogen). The cells were imaged with the Molecular Devices IXM microscope (FIG. 22). Translocation measurements were performed using MetaExpress software and normalized for cell number.

[3] = biological target: T1, murine SR-BI; experiment: Compound reversibility, cellular uptake of DiI from DiI-HDL; type: cell-based; conditions: 1 hr preincubation, then 0 or 4 hr incubation in the absence of compound; read-out: IC50, reversibility test (DiI uptake)
Protocol: Compound reversibility was tested by measuring the cellular uptake of DiI from DiI-HDL (all incubations at 37° C.) in ldlA7 cells that were stably transfected with cDNA encoding murine SR-BI. On day 0, 50,000 cells were plated in 96-well dishes per well (Costar, black with clear, flat bottom) in Ham's F12 medium containing 2 mM L-glutamine, 50 units/mL penicillin per 50 μg/mL streptomycin (medium A) supplemented with 5% (vol/vol) FBS and 0.25 mg/mL G418 (medium B). On day 2, the cells were washed twice with prewarmed (37° C.) medium A. The cells were then preincubated with the tested compounds in 200 μL per well of medium A plus 0.5% (wt/vol) BSA plus 0.5% (vol/vol) DMSO (medium C) for 1 hr. The 1 hr preincubation was followed by either a 0 or 4 hr incubation in medium C in the absence of compound. The cells were then incubated in medium C (200 μL per well) containing 10 μg protein per mL of DiI-HDL at 37° C. for 2 h to measure DiI uptake. […] Then 50 μL PBS was added and fluorescence measurements made using a Molecular Devices SpectraMax fluorescence plate reader (excitation at 515 nm, emission at 575 nm, bottom read mode). DiI uptake was also measured in the presence of a 40-fold excess of unlabeled HDL to determine nonspecific (SR-BI-independent) uptake.

[4] = Stability in human plasma; type: in vitro ADME; conditions: after a 5-hour incubation period
Protocol: The stability of the probe in PBS (1% DMSO) was measured over 48 hours. We noticed that the concentration of the probe fluctuated through the course of the assay (data not shown). We believe that this fluctuation is due to the low solubility of the probe. Thus, we decided to determine the amount of undissolved probe present in the well after it was treated with PBS for a given length of time, relative to the amount of undissolved probe at the start of the assay. The wells were centrifuged and the supernatant was removed after various time points, then acetonitrile was added to dissolve the remaining solid in the wells, and the amount of probe was quantified. […] The stability of the probe was confirmed by measuring stability in human plasma, with >99% remaining after a 5-hour incubation period. […] FIG. 5 provides a tablular summary of Known Probe (ML278) Properties Computed from Structure.

CCCCCCC1CCCC1=NNC(N)=S (stereo not shown) [BLT-1, reference compound]
IC50 [1]: 0.6 nM

COCC(=O)N1CCc2cc(-c3csc(NC(=O)c4cc(OC)cc(OC)c4)n3)ccc21 [Compound 137, 3,5-Dimethoxy-N-(4-(1-(2-methoxyacetyl)indolin-5-yl)thiazol-2-yl)benzamide]
effect on the endocytosis of transferrin ([2]; at concentrations up to 35 μM): no effect on the endocytosis of transferrin | endocytosis of transferrin ([2]; listed as ML278): not grossly perturbing cellular membrane trafficking pathways | endocytosis of transferrin ([2]; listed as Probe 278): did not inhibit endocytosis of transferring | endocytosis of transferrin ([2]; listed as compound of Formula (II)): does not inhibit endocytosis of transferrin | IC50 [3]: 315 nM | stability in human plasma, remaining [4]: > 99%
